The numbers were not newly measured in patent US10736894B2, “Methods of treating developmental syndromes with PDE10A inhibitors” (Ovid Therapeutics Inc., priority 2018, dated 2020), which cites them from elsewhere.

Broadly, the Tmax is the time at which the peak concentration occurs.

The conditions of data set [1]: 100 mg dose.
[2] abbreviates: single dose 3-1000 mg, volunteers.

With `COc1cn(-c2ccc(-n3cccn3)cc2F)nc(-c2ccnn2-c2ccccc2)c1=O` [1-[2-fluoro-4-(1H-pyrazol-1-yl)phenyl]-5-methoxy-3-(1-phenyl-1H-pyrazol-5-yl)-pyridazin-4(1H)-one], the oral bioavailability result in data set [1] (fed conditions versus fasting) was “increased oral bioavailability”. Besides, in data set [1] (fed conditions), the Tmax is 6 h. For the setting “all dose cohorts 3-1000 mg”, the “deaths, serious adverse events, discontinuations due to adverse events” value is given as “no deaths, serious adverse events, or discontinuations due to adverse events”. For the same molecule, under setting [2], the “drug-related adverse event: orthostatic hypotension” value is on record as 9.1%, the “drug-related adverse event: orthostatic tachycardia” value is 19.7% and the “drug-related adverse event: somnolence” value is 33.3%.
